pEC50: −log10 of the molar value. Converted amounts (≈) assume the structure as drawn. Structures can show the parent of a compound that is named as a salt. Where two headings read alike, the source gives them in different places.

By solubility is commonly meant how much of the substance goes into solution per volume. Usually pEC50 stands for the negative decadic logarithm of the EC50, by convention in mol/L.

For data set [1] the following is noted: the molecule shown is the open-chain precursor; snar bond; 15-membered ring; (E)-but-2-ene-1,4-diamine 2HCl/DIPEA; EtOH/THF 3:1; 46.0 mM; 105.0 °C.
For data set [2] the following is noted: snar bond, 15-membered ring, (E)-but-2-ene-1,4-diamine 2HCl/DIPEA.
Data set [3] in a line: Apparent solubility/extended kinetic solubility by UHPLC. Format: physicochemical. To be noted: aqueous buffer, thermodynamic from solid, phosphate buffer, 37° C. As for the experimental part: Biological Assay—Determination of Apparent Solubility/Extended Kinetic Solubility by UHPLC
Test sample preparation: About 0.5 mg of the test sample was weighed and transferred in duplicate in 1 mL glass inserts of 96 well plates. 5 μL of DMSO and 1 ml of phosphate buffer were added. Allowed for equilibrium in an orbital shaker at 37° C. for 24 hrs. Later, allowed it cool to room temperature and centrifuged the 96 well plate (at 240×10 RPM for 20 min) and supernatant material was taken into collection plate, covered it with the heat resistant aluminum sheet or supernatant material was directly taken into HPLC sample vial.
Injected diluent as blank and linearity solutions in duplicate. Recorded the chromatograms and plotted the calibration curve, concentration (X-axis) versus Area (y-axis). The correlation coefficient for calibration curve should be not less than 0.95. If above criteria passes, then injected the test samples and recorded the chromatograms. In case saturated peaks are observed, then diluted the test sample with diluent as appropriate.
Calculated the slope and intercept of the calibration curve. From the standard curve, determined the solubility of the sample in μM (micromolar).

The target of a further data set is T1, Human STING (Homo sapiens, UniProt Q86WV6, G230A/H232R/R293Q/R71H).
T1 construct: using human THP1-Blue™ ISG SEAP based reporter cell line (Invivogen); host or cells: THP1-Blue ISG cells (human monocytic THP-1 derived SEAP reporter line)
Description: Stimulation of human STING signaling in THP1 cell line (THP1-Blue ISG SEAP reporter). In kind it is cell-based. The settings on record: THP1-Blue ISG cells, SEAP activity, 18-20 hours. As to the method:
Biological Assay—Stimulation of Human STING Signaling in THP1 Cell Line
Compounds were tested for their STING activation potential using human THP1-Blue™ ISG SEAP based reporter cell line (Invivogen). Briefly, THP1-Blue ISG cells (100,000 cells/well) in 96 well plate were treated with varying concentrations of test and reference compounds and incubated at 37° C. with 5% CO2 for 18-20 hours. The control untreated cells were also set up. Post incubation, the cell supernatant was tested for SEAP (Secreted Embryonic Alkaline Phosphatase) activity using the QuantiBlue™ substrate reagent (Invivogen). The formation of blue coloured product was quantified by measuring absorbance at wavelength of 620 nm using PheraStar/Tecan reader. The average of duplicate readouts for each data point was plotted in GraphPad prism 6 against the concentration of test or reference compound to calculate EC50 value. The fold of SEAP induction or increase in luminescence at different data points was estimated against the un-stimulated cell control set.

T1 sequence (Q86WV6 whole entry R71H/G230A/H232R/R293Q): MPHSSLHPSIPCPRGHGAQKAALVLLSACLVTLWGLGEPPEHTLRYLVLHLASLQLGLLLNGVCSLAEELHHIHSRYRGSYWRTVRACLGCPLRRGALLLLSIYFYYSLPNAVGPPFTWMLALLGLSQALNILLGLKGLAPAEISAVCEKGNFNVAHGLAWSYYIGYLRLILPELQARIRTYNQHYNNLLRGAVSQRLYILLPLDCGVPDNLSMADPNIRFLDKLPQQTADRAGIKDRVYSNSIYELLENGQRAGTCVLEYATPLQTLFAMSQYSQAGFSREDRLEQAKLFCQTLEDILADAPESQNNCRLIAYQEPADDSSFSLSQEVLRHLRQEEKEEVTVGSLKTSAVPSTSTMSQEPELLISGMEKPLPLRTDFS

`CCOC(=O)c1cc(OCCCOc2cc(C(=O)OC(C)(C)C)cc([N+](=O)[O-])c2Cl)c(Cl)c([N+](=O)[O-])c1` gave a ring closure, isolated yield in data set [1] of 90%.
“diethyl (E)-7-(8-oxa-3-azabicyclo[3.2.1]octan-3-yl)-1,13-dinitro-7,8,14,15,18,19-hexahydro-6H-dibenzo[b,j][1,12]dioxa[4,9]diazacyclopentadecine-3,11-dicarboxylate” registered a ring closure, crude yield in data set [2] (EtOH/THF 7.4:1, 148.0 mM, 110.0 °C) of 88%.
Take `CCOC(=O)c1cc(OC[C@H](COc2cc(C(=O)OC(C)(C)C)cc([N+](=O)[O-])c2Cl)N2C3CCC2COC3)c(Cl)c([N+](=O)[O-])c1`: the ring closure, crude yield in data set [2] (the molecule shown is the open-chain precursor, EtOH, 121.0 mM, 105.0 °C) is 89.8%.
`CCOC(=O)c1cc(OCC(COc2cc(C(=O)OCC)cc([N+](=O)[O-])c2Cl)N2CCOCC2)c(Cl)c([N+](=O)[O-])c1`: in data set [2] (the molecule shown is the open-chain precursor, EtOH/THF 7:1, 156.5 mM, 110.0 °C), the ring closure, crude yield worked out at 88%.
`CCn1nc(C)cc1C(=O)Nc1nc2cc(C(N)=O)cc3c2n1C/C=C/Cn1c(NC(=O)c2cc(C)nn2CC)nc2cc(C(=O)NCCc4ccccc4C(=O)O)cc(c21)OCCCO3` [Compound 5, (E)-2-(2-(12-carbamoyl-1,15-bis(1-ethyl-3-methyl-1H-pyrazole-5-carboxamido)-8,9,16,19-tetrahydro-7H-6,10-dioxa-2,14,15a,19a-tetraazacyclopentadeca[3,2,1-cd:8,9,10-c′d′]diindene-4-carboxamido)ethyl)benzoic acid sodium salt]: in data set [3], the solubility at 24 h was determined as 1120 µM. Further, at Human STING, the pEC50 is 8.00 to 9.00.
In the same order, the values of `CCn1nc(C)cc1C(=O)Nc1nc2cc(C(N)=O)cc3c2n1C/C=C/Cn1c(NC(=O)c2cc(C)nn2CC)nc2cc(C(=O)NCCCc4noc(=O)[nH]4)cc(c21)OCCCO3` [Compound 11, (E)-1,15-bis(1-ethyl-3-methyl-1H-pyrazole-5-carboxamido)-N-(3-(5-oxo-4,5-dihydro-1,2,4-oxadiazol-3-yl)propyl)-8,9,16,19-tetrahydro-7H-6,10-dioxa-2,14,15a,19a-tetraazacyclopentadeca[3,2,1-cd:8,9,10-c′d′]diindene-4,12-dicarboxamide] are 98 µM (≈ 85.7 µg/mL) and 8.00 to 9.00.
For `CCOC(=O)c1cc(OCCCOc2cc(C(N)=O)cc([N+](=O)[O-])c2Cl)c(Cl)c([N+](=O)[O-])c1`, the ring closure, crude yield in data set [2] (the molecule shown is the open-chain precursor, EtOH/THF 3:1, 99.5 mM, 120.0 °C) stood at 73%.
Take `CCn1nc(C)cc1C(=O)Nc1nc2cc(C(N)=O)cc3c2n1C/C=C/Cn1c(NC(=O)c2cc(C)nn2CC)nc2cc(C(=O)NCCc4nnn[nH]4)cc(c21)OCCCO3` [Compound 4, (E)-N-(2-(1H-tetrazol-5-yl)ethyl)-1,15-bis(1-ethyl-3-methyl-1H-pyrazole-5-carboxamido)-8,9,16,19-tetrahydro-7H-6,10-dioxa-2,14,15a,19a-tetraazacyclopentadeca[3,2,1-cd:8,9,10-c′d′]diindene-4,12-dicarboxamide]: in data set [3], the solubility at 24 h was 149 µM (≈ 126 µg/mL). The same compound gave a pEC50 on Human STING of 8.00 to 9.00.

These data come from US12479858B2, “Macrocyclic compounds as sting agonists and methods and uses thereof” (Lupin Limited, priority 2019, dated 2025).
